Reference: paper PMC8539420, “Discovery of a Potent and Selective JNK3 Inhibitor with Neuroprotective Effect Against Amyloid β-Induced Neurotoxicity in Primary Rat Neurons” (International Journal of Molecular Sciences, 2021)
Read-outs that look alike come from different tables or passages of the source.

Target: T1, JNK3(h) (Homo sapiens, UniProt P53779)
T1 construct: purchased Reaction Biology Corp
Experiment: Kinase HotSpot radiometric assay, JNK3
Assay type: biochemical

[1] = ATP 10 μM, substrate ATF2 5 μM, read-out: JNK3 inhibitory activity IC50

T1 sequence (P53779 whole entry): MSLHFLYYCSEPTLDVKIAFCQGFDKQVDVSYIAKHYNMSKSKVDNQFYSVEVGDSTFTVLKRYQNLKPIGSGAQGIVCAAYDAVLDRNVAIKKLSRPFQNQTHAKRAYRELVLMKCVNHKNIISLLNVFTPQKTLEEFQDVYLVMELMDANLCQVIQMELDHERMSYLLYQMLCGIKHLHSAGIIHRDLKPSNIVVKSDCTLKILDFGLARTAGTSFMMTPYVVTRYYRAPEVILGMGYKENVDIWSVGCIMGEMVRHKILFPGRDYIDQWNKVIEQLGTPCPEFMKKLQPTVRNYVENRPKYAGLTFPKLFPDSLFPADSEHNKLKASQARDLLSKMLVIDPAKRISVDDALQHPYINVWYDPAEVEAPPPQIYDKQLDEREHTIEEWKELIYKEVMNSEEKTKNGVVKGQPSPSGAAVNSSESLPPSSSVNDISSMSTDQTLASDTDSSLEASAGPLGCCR

Compound | IC50 [1] [nM] | IC50 (read-out: JNK3 IC50) [nM]
Oc1ccc2c(c1)nc(-c1ccc3ccccc3c1)n2-c1ccnc(NC2CCCCC2)n1 [10a, 1-(2-(cyclohexylamino)pyrimidin-4-yl)-2-(naphthalen-2-yl)-1H-benzo[d]imidazol-5-ol] | 420 | 
O=C(C1CC1)N1CCC[C@H](Nc2nccc(-n3c(-c4ccc5occc5c4)nc4cc(O)ccc43)n2)C1 [13c, (S)-(3-((4-(2-(Benzofuran-5-yl)-5-hydroxy-1H-benzo[d]imidazol-1-yl)pyrimidin-2-yl)amino)piperidin-1-yl)(cyclopropyl)methanone] | 287 | 
O=C(C1CC1)N1CCC[C@H](Nc2nccc(-n3c(-c4ccc5ccccc5n4)nc4ccc(O)cc43)n2)C1 [26f, (S)-Cyclopropyl(3-((4-(6-hydroxy-2-(quinolin-2-yl)-1H-benzo[d]imidazol-1-yl)pyrimidin-2-yl)amino)piperidin-1-yl)methanone] | 189 | 
Oc1ccc2c(c1)nc(-c1ccc(F)c(C(F)(F)F)c1)n2-c1ccnc(NC2CCCCC2)n1 [10e, 1-(2-(Cyclohexylamino)pyrimidin-4-yl)-2-(4-fluoro-3-(trifluoromethyl)phenyl)-1H-benzo [d]imidazol-5-ol] | 799 | 
Oc1ccc2nc(-c3ccc4ccccc4c3)n(-c3ccnc(NC4CCOCC4)n3)c2c1 [22a, 2-(Naphthalen-2-yl)-1-(2-((tetrahydro-2H-pyran-4-yl)amino)pyrimidin-4-yl)-1H-benzo[d]imidazol-6-ol] | 1430 | 
Oc1ccc2c(c1)nc(-c1ccc3occc3c1)n2-c1ccnc(NC2CCOCC2)n1 [9c, 2-(Benzofuran-5-yl)-1-(2-((tetrahydro-2H-pyran-4-yl)amino)pyrimidin-4-yl)-1H-benzo[d] imidazol-5-ol] | 4310 | 
O=C(C1CC1)N1CCC[C@H](Nc2nccc(-n3c(-c4ccc(F)c(C(F)(F)F)c4)nc4cc(O)ccc43)n2)C1 [13e, (S)-Cyclopropyl(3-((4-(2-(4-fluoro-3-(trifluoromethyl)phenyl)-5-hydroxy-1H-benzo[d]imidazol-1-yl)pyrimidin-2-yl)amino)piperidin-1-yl)methanone] | 679 | 
Oc1ccc2nc(-c3ccc(F)c(C(F)(F)F)c3)n(-c3ccnc(NC4CCCCC4)n3)c2c1 [23e, 1-(2-(Cyclohexylamino)pyrimidin-4-yl)-2-(4-fluoro-3-(trifluoromethyl)phenyl)-1H-benzo [d]imidazol-6-ol] | 305 | 
Oc1ccc2nc(-c3ccc4ccccc4n3)n(-c3ccnc(NC4CCCCC4)n3)c2c1 [23f, 1-(2-(Cyclohexylamino)pyrimidin-4-yl)-2-(quinolin-2-yl)-1H-benzo[d]imidazol-6-ol] | 424 | 
Oc1ccc2c(c1)nc(-c1ccc3c(c1)OCCO3)n2-c1ccnc(NC2CCOCC2)n1 [9b, 2-(2,3-Dihydrobenzo[b][1,4]dioxin-6-yl)-1-(2-((tetrahydro-2H-pyran-4-yl)amino)pyrimidin-4-yl)-1H-benzo[d]imidazol-5-ol] | > 10000 | 
Oc1ccc2nc(-c3ccc4c(c3)OCCO4)n(-c3ccnc(NC4CCOCC4)n3)c2c1 [22b, 2-(2,3-Dihydrobenzo[b][1,4]dioxin-6-yl)-1-(2-((tetrahydro-2H-pyran-4-yl)amino)pyrimidin-4-yl)-1H-benzo[d]imidazol-6-ol] | 1550 | 
Oc1ccc2c(c1)nc(-c1ccc3ccccc3c1)n2-c1ccnc(NC2CCOCC2)n1 [9a] | 1480 | 
Oc1ccc2nc(-c3ccc4occc4c3)n(-c3ccnc(NC4CCOCC4)n3)c2c1 [22c, 2-(Benzofuran-5-yl)-1-(2-((tetrahydro-2H-pyran-4-yl)amino)pyrimidin-4-yl)-1H-benzo[d]imidazol-6-ol] | 2190 | 
O=C(C1CC1)N1CCC[C@H](Nc2nccc(-n3c(-c4ccc5ccccc5c4)nc4cc(O)ccc43)n2)C1 [13a, (S)-cyclopropyl(3-((4-(5-hydroxy-2-(naphthalen-2-yl)-1H-benzo[d]imidazol-1-yl)pyrimidin-2-yl)amino)piperidin-1-yl)methanone] | 391 | 
Oc1ccc2c(c1)nc(-c1ccc3ccccc3n1)n2-c1ccnc(NC2CCCCC2)n1 [10f, 1-(2-(Cyclohexylamino)pyrimidin-4-yl)-2-(quinolin-2-yl)-1H-benzo[d]imidazol-5-ol] | 424 | 
O=C(C1CC1)N1CCC[C@H](Nc2nccc(-n3c(-c4ccc5c(c4)OCCO5)nc4cc(O)ccc43)n2)C1 [13b, (S)-Cyclopropyl(3-((4-(2-(2,3-dihydrobenzo[b][1, 4]dioxin-6-yl)-5-hydroxy-1H-benzo[d]imidazol-1-yl)pyrimidin-2-yl)amino)piperidin-1-yl)methanone] | 679 | 
Oc1ccc2c(c1)nc(-c1ccc3occc3c1)n2-c1ccnc(NC2CCCCC2)n1 [10c, 2-(Benzofuran-5-yl)-1-(2-(cyclohexylamino)pyrimidin-4-yl)-1H-benzo[d]imidazol-5-ol] | 299 | 

The next compounds have a lower IC50 [1] than those just listed; values first:

IC50 [1] [nM] | IC50 (read-out: JNK3 IC50) [nM] | Compound
161 |  | O=C(C1CC1)N1CCC[C@H](Nc2nccc(-n3c(-c4ccc5ccccc5n4)nc4cc(O)ccc43)n2)C1 [13f, (S)-Cyclopropyl(3-((4-(5-hydroxy-2-(quinolin-2-yl)-1H-benzo[d]imidazol-1-yl)pyrimidin-2-yl)amino)piperidin-1-yl)methanone]
139 |  | Oc1ccc2c(c1)nc(-c1ccc(Cl)c(Cl)c1)n2-c1ccnc(NC2CCCCC2)n1 [10d, 1-(2-(Cyclohexylamino)pyrimidin-4-yl)-2-(3,4-dichlorophenyl)-1H-benzo[d]imidazol-5-ol]
100 |  | O=C(C1CC1)N1CCC[C@H](Nc2nccc(-n3c(-c4ccc(F)c(C(F)(F)F)c4)nc4ccc(O)cc43)n2)C1 [26e, (S)-Cyclopropyl(3-((4-(2-(4-fluoro-3-(trifluoromethyl)phenyl)-6-hydroxy-1H-benzo[d]imidazol-1-yl)pyrimidin-2-yl)amino)piperidin-1-yl)methanone]
110 |  | Oc1ccc2nc(-c3ccc(Cl)c(Cl)c3)n(-c3ccnc(NC4CCCCC4)n3)c2c1 [23d, 1-(2-(Cyclohexylamino)pyrimidin-4-yl)-2-(3,4-dichlorophenyl)-1H-benzo[d]imidazol-6-ol]
45 |  | Oc1ccc2nc(-c3ccc4ccccc4c3)n(-c3ccnc(NC4CCCCC4)n3)c2c1 [23a, 1-(2-(Cyclohexylamino)pyrimidin-4-yl)-2-(naphthalen-2-yl)-1H-benzo[d]imidazol-6-ol]
114 |  | O=C(C1CC1)N1CCC[C@H](Nc2nccc(-n3c(-c4ccc5c(c4)OCCO5)nc4ccc(O)cc43)n2)C1 [26b, (S)-Cyclopropyl(3-((4-(2-(2,3-dihydrobenzo[b][1,4]dioxin-6-yl)-6-hydroxy-1H-benzo[d]imidazol-1-yl)pyrimidin-2-yl)amino)piperidin-1-yl)methanone]
22 | ~20 | O=C(C1CC1)N1CCC[C@H](Nc2nccc(-n3c(-c4ccc(Cl)c(Cl)c4)nc4ccc(O)cc43)n2)C1 [26d, (S)-Cyclopropyl(3-((4-(2-(3,4-dichlorophenyl)-6-hydroxy-1H-benzo[d]imidazol-1-yl)pyrimidin-2-yl)amino)piperidin-1-yl)methanone]
42 |  | O=C(C1CC1)N1CCC[C@H](Nc2nccc(-n3c(-c4ccc5occc5c4)nc4ccc(O)cc43)n2)C1 [26c, (S)-(3-((4-(2-(Benzofuran-5-yl)-6-hydroxy-1H-benzo[d]imidazol-1-yl)pyrimidin-2-yl)amino)piperidin-1-yl)(cyclopropyl)methanone]
71 |  | Oc1ccc2nc(-c3ccc4occc4c3)n(-c3ccnc(NC4CCCCC4)n3)c2c1 [23c, 2-(Benzofuran-5-yl)-1-(2-(cyclohexylamino)pyrimidin-4-yl)-1H-benzo[d]imidazol-6-ol]
